Earlier results in patent publication US20070054964A1 (Wyeth, priority 2005, published 2007).

Legend:
[1] = system: α1-adrenergic receptors
[2] = system: dopamine re-uptake
[3] = system: neuronal norepinephrine re-uptake
[4] = compared with ODV free base
[5] = compared with ODV free base; remark: listed apart in the source
[6] = oral administration, vs venlafaxine, ODV or other salts of ODV
[7] = target: H1-histaminergic receptors (Homo sapiens, UniProt P35367)
[8] = system: muscarinic receptors
[9] = system: neuronal serotonin re-uptake
[10] = in vitro studies, Muth et al. 1991

Sequence of H1-histaminergic receptors (P35367 whole entry): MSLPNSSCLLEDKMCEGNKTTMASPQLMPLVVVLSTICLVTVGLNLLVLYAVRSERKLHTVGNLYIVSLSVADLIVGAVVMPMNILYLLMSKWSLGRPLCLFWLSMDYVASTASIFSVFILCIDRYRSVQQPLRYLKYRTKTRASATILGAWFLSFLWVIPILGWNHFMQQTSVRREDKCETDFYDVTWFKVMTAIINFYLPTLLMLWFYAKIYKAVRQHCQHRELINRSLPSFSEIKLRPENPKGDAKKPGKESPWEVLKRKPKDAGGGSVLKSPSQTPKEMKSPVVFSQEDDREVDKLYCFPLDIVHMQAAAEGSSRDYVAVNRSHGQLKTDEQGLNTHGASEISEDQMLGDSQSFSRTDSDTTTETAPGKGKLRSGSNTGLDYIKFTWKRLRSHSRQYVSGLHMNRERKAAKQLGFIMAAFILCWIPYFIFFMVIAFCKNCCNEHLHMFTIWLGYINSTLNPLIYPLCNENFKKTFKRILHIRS

Row | Compound | affinity for α1-adrenergic receptors [1] | inhibition of dopamine re-uptake [2] | inhibition of neuronal norepinephrine re-uptake [3] | permeability [4] | bioavailability [5] | incidence of nausea, vomiting, diarrhea, abdominal pain, headache, vaso-vagal malaise, and/or trismus [6] | solubility compared with venlafaxine | affinity for H1-histaminergic receptors [7] | affinity for muscarinic receptors [8] | potency of norepinephrine re-uptake inhibition compared with venlafaxine [3, 10] | inhibition of neuronal serotonin re-uptake [9] | potency of serotonin re-uptake inhibition compared with venlafaxine [9, 10]
1 | COc1ccc(C(CN(C)C)C2(O)CCCCC2)cc1 (racemic) [Venlafaxine, (±)-1-[2-(dimethylamino)-1-(4-methoxyphenyl)ethyl]-cyclohexanol] | no significant affinity | weak inhibitors | potent inhibitors | – | – | – | – | – | – | – | – | –
2 | CN(C)CC(c1ccc(O)cc1)C1(O)CCCCC1.O=C(O)CCC(=O)O (stereo not drawn) [ODV succinate] | – | – | – | improved | improved | lower incidence | – | – | – | – | – | –
3 | CN(C)CC(c1ccc(O)cc1)C1(O)CCCCC1 (stereo not drawn) [ODV, 1-[2-(dimethyl-amino)-1-(4-phenyl)ethyl]-cyclohexanol] | no significant affinity | weak inhibitors | potent inhibitors | – | – | – | more soluble | no significant affinity | no significant affinity | more potent inhibitor | potent inhibitors | more potent inhibitor
